Data as given in patent US20080176866A1, “NOVEL HETARYL-PHENYLENEDIAMINE-PYRIMIDINES AS PROTEIN KINASE INHIBITORS” (priority 2006, published 2008).
pIC50: −log10 of the molar value.

Columns and labels:
CDK2/CycE = target: T1, CDK2/CycE (Homo sapiens, UniProt P24941); assay: CDK2/CycE kinase assay (HTRF); type: biochemical; details: 10 μM ATP
T1 construct: GST; purchased ProQinase GmbH, Freiburg; host or cells: baculovirus-infected insect cells (Sf9)
Procedure: The CDK2/CycE inhibitory activity of the substances of this invention was measured in the CDK2/CycE-HTRF assay (HTRF=Homogeneous Time Resolved Fluorescence) described in the following paragraphs.
Recombinant CDK2-GST and CycE-GST fusion proteins purified from baculovirus-infected insect cells (Sf9) were purchased from ProQinase GmbH, Freiburg. The substrate used for the kinase reaction was the biotinylated peptide biotin-Ttds-YISPLKSPYKISEG (C terminus in amide form) which can be purchased for example from JERINI Peptide Technologies (Berlin).
CDK2/CycE was incubated in the presence of various concentrations of test substances in 5 μL of assay buffer [50 mM Tris/HCl pH 8.0, 10 mM MgCl2, 1.0 mM dithiothreitol, 0.1 mM sodium orthovanadate, 10 μM adenosine triphosphate (ATP), 0.75 μM substrate, 0.01% (v/v) Nonidet-P40 (Sigma), 1% (v/v) dimethyl sulphoxide] at 22° C. for 60 min. The concentration of CDK2/CycE was adapted to the particular activity of the enzyme and adjusted so that the assay operated in the linear range. Typical concentrations were in the region of 1 ng/ml. The reaction was stopped by adding 5 μl of a solution of HTRF detection reagents (0.2 μM streptavidin-XLent and 3.4 nM phospho-(Ser) CDKs substrate antibody [product #2324B, Cell Signaling Technology, Danvers, Mass., USA] and 4 nM Prot-A-EuK [protein A labelled with Europium cryptate from C is biointernational, France, product No. 61 PRAKLB]) in aqueous EDTA solution (100 mM EDTA, 800 mM KF, 0.2% (w/v) bovine serum albumin (BSA) in 100 mM HEPES/NaOH pH 7.0).
(§1) The resulting mixture was incubated at 22° C. for 1 h in order to allow formation of a complex of the biotinylated phosphorylated substrate and the detection reagents. The amount of phosphorylated substrate was then estimated by measuring the resonance energy transfer from the Prot-A-EuK to the streptavidin-XLent. For this purpose, the fluorescence emissions at 620 nm and 665 nm after excitation at 350 nm were measured in an HTRF measuring instrument, e.g. a Rubystar (BMG Labtechnologies, Offenburg, Germany) or a Viewlux (Perkin-Elmer). The ratio of the emissions at 665 nm and at 622 nm was taken as a measure of the amount of phosphorylated substrate. The data were normalized (enzymic reaction without inhibitor=0% inhibition, all other assay components but no enzyme=100% inhibition) and IC50 values were calculated with a 4-parameter fit using an inhouse software.

human Aurora-C = target: T2, human Aurora-C (Homo sapiens, UniProt Q9UQB9); assay: Aurora-C kinase assay (HTRF); type: biochemical; details: GST-human Aurora-C, 10 μM ATP
T2 construct: GST; made in house; host or cells: transiently transfected HEK293 cells
T2 sequence (Q9UQB9 1-309): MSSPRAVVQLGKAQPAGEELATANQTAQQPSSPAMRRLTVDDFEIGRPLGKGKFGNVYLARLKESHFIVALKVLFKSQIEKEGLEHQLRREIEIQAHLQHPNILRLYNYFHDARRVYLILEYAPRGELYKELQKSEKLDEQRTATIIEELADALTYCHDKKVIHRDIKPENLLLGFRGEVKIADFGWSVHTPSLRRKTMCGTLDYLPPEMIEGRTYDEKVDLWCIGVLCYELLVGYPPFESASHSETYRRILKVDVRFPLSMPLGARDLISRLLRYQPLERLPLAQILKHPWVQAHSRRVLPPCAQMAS
Procedure: The Aurora-C inhibitory activity of the substances of this invention was measured in the Aurora-C-HTRF assay (HTRF=Homogeneous Time Resolved Fluorescence) described in the following paragraphs.
Recombinant fusion protein of GST and human Aurora-C was expressed in transiently transfected HEK293 cells and purified by affinity chromatography on glutathione-Sepharose. The substrate used for the kinase reaction was the biotinylated peptide biotin-Ttds-FMRLRRLSTKYRT (C terminus in amide form) which can be purchased for example from JERINI Peptide Technologies (Berlin). Aurora-C was incubated in the presence of various concentrations of test substances in 5 μL of assay buffer [25 mM Hepes/NaOH pH 7.4, 0.5 mM MnCl2, 2.0 mM dithiothreitol, 0.1 mM sodium orthovanadate, 10 μM adenosine triphosphate (ATP), […] substrate, 0.01% (v/v) TritonX-100 (Sigma), 0.05% (w/v) bovine serum albumin (BSA), 1% (v/v) dimethyl sulphoxide] at 22° C. for 60 min. The concentration of Aurora-C was adapted to the particular activity of the enzyme and adjusted so that the assay operated in the linear range. Typical concentrations were in the region of 0.3 nM. The reaction was stopped by adding 5 μl of a solution of HTRF detection reagents (0.2 μM streptavidin-XLent and 1.4 nM anti-phospho-(Ser/Thr)-Akt substrate-Eu-cryptate (C is biointernational, France, product No. 61P02KAE), a Europium-cryptate-labelled phospho-(Ser/Thr)-Akt substrate antibody [product #9611B, Cell Signaling Technology, Danvers, Mass., USA]) in aqueous EDTA solution (40 mM EDTA, 400 mM KF, 0.05% (w/v) bovine serum albumin (BSA) in 25 mM HEPES/NaOH pH 7.0).
as §1, with “anti-phospho-(Ser/Thr)-Akt substrate-Eu cryptate” for “Prot-A-EuK”

Row | pIC50 (CDK2/CycE) | pIC50 (human Aurora-C) | Compound
1 | 8.55 | 6.70 | C[C@@H](O)[C@@H](C)Oc1nc(Nc2ccc(Nc3nccc(OCCO)n3)cc2)ncc1Br [Example 8, (2R,3R)-3-(5-Bromo-2-{4-[4-(2-hydroxyethoxy)pyrimidin-2-ylamino]-phenylamino}pyrimidin-4-yloxy)butan-2-ol]
2 | 8.54 | 6.85 | C[C@@H](O)[C@@H](C)Oc1nc(Nc2ccc(Nc3ncccn3)cc2)ncc1Br [Example 15]
3 | 8.70 | 7.38 | C[C@@H](O)[C@@H](C)Oc1nc(Nc2ccc(Nc3nccc(N)n3)cc2)ncc1Br [Example 16]
4 | 8.36 | 7.00 | C[C@@H](O)[C@@H](C)Oc1nc(Nc2ccc(Nc3nccc(N(C)C)n3)cc2)ncc1Br [Example 17]
5 | 8.23 | 7.12 | C[C@@H](O)[C@@H](C)Oc1nc(Nc2ccc(Nc3nccc(NCCN(C)C)n3)cc2)ncc1Br [Example 18]
6 | 8.66 | 7.04 | Cc1cnc(Nc2ccc(Nc3ncc(Br)c(O[C@H](C)[C@@H](C)O)n3)cc2)nc1NCCO [Example 19]
7 | 8.66 | 6.74 | C[C@@H](O)[C@@H](C)Oc1nc(Nc2ccc(Nc3ncc(Cl)c(NCCO)n3)cc2)ncc1Br [Example 21]
8 | 8.32 | 6.57 | COc1ccnc(Nc2ccc(Nc3ncc(Br)c(O[C@H](C)[C@@H](C)O)n3)cc2)n1 [Example 22]
9 | 8.21 | 6.89 | C[C@@H](O)[C@@H](C)Oc1nc(Nc2ccc(Nc3ncc(Br)cn3)cc2)ncc1Br [Example 24]
10 | 8.70 | 6.47 | C[C@@H](O)[C@@H](C)Oc1nc(Nc2cccc(Nc3ncccn3)c2)ncc1Br [Example 25]
11 | 8.62 | 6.36 | C[C@@H](O)[C@@H](C)Oc1nc(Nc2cccc(Nc3nccc(OCCO)n3)c2)ncc1Br [Example 27]
12 | 6.59 | 5.09 | CSc1nc(Nc2ccc(Nc3ccccn3)cc2)ncc1Br [Example 29]
13 | 5.24 | 7.28 | CC(=O)NCCNc1nc(Nc2cccc(Nc3ncc(Br)c(NCCNC(C)=O)n3)c2)ncc1Br [Example 30]
14 | 8.18 | 6.42 | C[C@@H](O)[C@@H](C)Nc1nc(Nc2ccc(Oc3cccnc3)cc2)ncc1Br [Example 33]
15 | 8.04 | 6.31 | C[C@@H](O)[C@@H](C)Nc1nc(Nc2ccc(Oc3ncccn3)cc2)ncc1Br [Example 34]
16 | 8.89 | 6.46 | C[C@@H](O)[C@@H](C)Nc1nc(Nc2ccc(Sc3nncn3C)cc2)ncc1Br [Example 39]
17 | 6.43 | 6.00 | C[C@@H](O)[C@@H](C)Sc1nc(Nc2ccc(Nc3ncc(Cl)c(NCCO)n3)cc2)ncc1Br [Example 44]
